Laboratory results published in ChEMBL document CHEMBL1151547, “Enantioselective reduction of ethyl 3-methyl-2-oxobutanoate by an enzymatic system from callus of catharanthus roseus” (1994).

Tests used:
[1] = system: Catharanthus roseus; experiment: Substrate specificity for NADPH-dependent dehydrogenase of catharanthus roseus membrane fraction; format: functional
[2] = system: Catharanthus roseus; experiment: Substrate specificity for NADPH-dependent dehydrogenase of catharanthus roseus supernatant fraction; format: functional

Structure (SMILES): CCOC(=O)C(=O)C(C)C
- Activity [1]: 100
- Activity [2]: 100

Structure (SMILES): CCOC(=O)C(C)=O [ETHYL PYRUVATE]
- Activity [1]: 59
- Activity [2]: 70

Structure (SMILES): CCOC(=O)C(=O)CC
- Activity [1]: 65
- Activity [2]: 68

Structure (SMILES): CCCCCC(=O)C(=O)OCC
- Activity [1]: 50
- Activity [2]: 50

Structure (SMILES): CC(C)C(=O)C(=O)O [2-Oxoisovalerate]
- Activity [1]: 0
- Activity [2]: 0

Structure (SMILES): CC=O [ACETALDEHYDE]
- Activity [1]: 0
- Activity [2]: 0

Structure (SMILES): COC(=O)CC(=O)CCl
- Activity [1]: 0
- Activity [2]: 12

Structure (SMILES): CCC(=O)C(=O)O
- Activity [1]: 0
- Activity [2]: 0

Structure (SMILES): O=CC(O)CO (stereo not drawn)
- Activity [1]: 0
- Activity [2]: 0

Structure (SMILES): CCOC(=O)CC(C)=O
- Activity [1]: 0
- Activity [2]: 0

Structure (SMILES): CCCCCCCCC(=O)C(F)(F)F
- Activity [1]: 0
- Activity [2]: 0

Structure (SMILES): O=C(c1ccccc1)C(F)(F)F
- Activity [1]: 6
- Activity [2]: 65

Structure (SMILES): CCOC(=O)C(C)C(C)=O (stereo not drawn)
- Activity [1]: 0
- Activity [2]: 29

Structure (SMILES): CC(C)CC(=O)C(=O)O [2-Oxoisohexanoate]
- Activity [1]: 0
- Activity [2]: 0
